In EP0922770B1, “A microbiological process for the transformation of 17beta-carboxy substituted 3-oxo-4-azasteroids and the use of such products as inhibitors of the enzyme 5alpha-reductase” (POLI INDUSTRIA CHIMICA S.p.A., priority 1994, dated 1996):

Biological target: enzyme 5α-reductase
Experiment: enzymatic in vitro method described in WO/9413691 (5α-reductase inhibition)
Format: biochemical
Details: for IC50: concentration inhibiting by 50% the enzymatic activity, Finasteride as control product; for inhibiting activity on the enzyme 5α-reductase: verbal assessment, compared with Finasteride
Source text: The three monohydroxylated products obtained by biotransformation of the azasteroid moiety using Penicillium sp. have biological activity on the enzyme 5α-reductase. For this purpose, the enzymatic in vitro method described in WO/9413691, published on June 23, 1994 has been used.

Structure (SMILES): CC(C)(C)NC(=O)[C@H]1C[C@@H](O)[C@H]2[C@@H]3CCC4NC(=O)CC[C@]4(C)[C@H]3CC[C@@]21C (stereo partly drawn) [Product 3, 17β-t-butylcarbamoyl-15β-hydroxy-4-azaandrostan-3-one]
- IC50: 35 nM
- inhibiting activity on the enzyme 5α-reductase: strong inhibiting activity

Structure (SMILES): CC(C)(C)NC(=O)[C@H]1CC[C@H]2[C@@H]3C[C@H](O)C4NC(=O)CC[C@]4(C)[C@H]3CC[C@]12C (stereo partly drawn) [Product 1, 17β-t-butylcarbamoyl-6a-hydroxy-4-azaandrostan-3-one]
- IC50: 195 nM
- inhibiting activity on the enzyme 5α-reductase: poorly active

Structure (SMILES): CC(C)(C)NC(=O)[C@H]1CC[C@H]2[C@@H]3CC[C@H]4NC(=O)C=C[C@]4(C)[C@H]3CC[C@]12C [Finasteride, reference compound]
- IC50: 37 nM

Structure (SMILES): CC(C)(C)NC(=O)[C@H]1C[C@H](O)[C@H]2[C@@H]3CCC4NC(=O)CC[C@]4(C)[C@H]3CC[C@@]21C (stereo partly drawn) [Product 2, 17β-t-butylcarbamoyl-15a-hydroxy-4-azaandrostan-3-one]
- IC50: 35 nM
- inhibiting activity on the enzyme 5α-reductase: strong inhibiting activity
